Source: patent US7166599B2, “Trisubstituted pyrimidines” (Boehringer Ingelheim Pharma GmbH & Co. KG, priority 2001, dated 2007)

Tested on: γ-secretase
Assay: γ-secretase HTS luciferase reporter assay (inhibition of Aβ formation) in H4 neuroglioma cells stably carrying pFRLuc and Aβ-KKK/Gal4
Assay type: cell-based
Settings: luciferase activity (Steady-Glo) in doubly stable H4 neuroglioma HTS cell line, test substance incubated overnight (8–16 h), compared with control
From the text: The inhibition of Aβ formation was investigated using the following test system:
Preparation of a suitable γ-secretase HTS cell line:
H4 neuroglioma cells (Accession number HTB 148 at the “American Type Culture Collection”, Manassas, Va., USA) were transfected under standard conditions with the reporter construct pFRLuc (Stratagene) which carries the gene for luciferase. By transient transfection experiments with pcDNA3-Gal4 which codes for the soluble Gal4, an individual clone having the highest luciferase activity was selected. In order to prepare the Aβ-KKK/Gal4 construct, a sequence containing the N-terminal signal sequence of APP and the first 55 amino acids of Aβ (Shoji et al, 1992) was linked to the Gal4 coding sequence (Laughan, A and Gesteland, R Molec. Cell Biol., 1984, 4: 260–267) by genetic engineering and cloned into the expression vector pcDNA3neo (Invitrogen). This construct was called pcDNA3-AβKKK/Gal4. In order to insert an ER-retention signal in the substrate of the γ-secretase, the last nucleotides of the Gal4 were altered by genetic engineering so that they coded for the amino acids KKLI. This construct was named Aβ-KKK-ER. The cell clone obtained as described above was used for the second stable transfection with pcDNA3-Aβ-KKK/Gal4 or pcDNA3-Aβ-KKK-ER and the selection with neomycin was carried out under standard conditions (Sambrook and Maniatis, 1989). Individual neomycin-resistant cell clones were investigated for their expression of luciferase. The clones with the highest expression were used for the substance analyses. All the transfections were carried out using the Fugene transfection system supplied by Boehringer Mannheim, in accordance with the manufacturer's instructions.
The doubly stabile HTS cell line is seeded onto a 96/384 microtitre plate. When the cells are confluent, they are incubated with the particular test substance for a specified length of time. After incubation the cell medium is removed and the luciferase enzyme activity is determined precisely as instructed by the manufacturer of the test kit used (SteadyGlo, Promega).
As a result of the presence of an endogenous γ-secretase activity in the H4 cells the substrate (Aβ-KKK/Gal4) is cleaved proteolytically, while the transactivator Gal4 is able to become detached from the membrane and enter the cell nucleus. In the cell nucleus Gal4 binds to the Gal4-DNA binding domain of the reporter construct and thus activates the expression of the luciferase. If a specific γ-secretase inhibitor is present the substrate cannot be cleaved and Gal4 remains bound to the substrate on the cell membrane, leading to a reduction amounting to total inhibition of the luciferase activity.
Cells are seeded on 96/384 well plates in DMEM complete medium (10% FCS, 1% glutamine, 1% penicillin/streptomycin) in a dilution of 1:5. The cells are incubated for 24 to 48 h (depending on the cell clone and the dilution used) at 37° C., 5% CO2 and allowed to grow until 80–90% confluence is achieved. Then the test substance is added and the preparation is incubated overnight (8–16 h) at 37° C. and 5% CO2. The 96/384 well plates are equilibrated to ambient temperature (RT). The “Steady-Glo” Luciferase Assay System Kit (Promega catalogue no. E2520) is used. The Luciferase Assay Reagent is thawed and equilibrated to ambient temperature or freshly prepared (Luciferase Assay Substrate dissolved in Luciferase Assay Buffer). The medium is suction filtered […]. 100 μl (based on 96 well plates) of fresh complete medium are added per well. 100 μl (based on 96 well plates) of Luciferase Assay Reagent are added and the preparation is incubated for 5 min at RT. Then the luminescence is measured. For 384 well plates the quantities pipetted are reduced accordingly.
The measurements are compared with the control and then the IC50 is determined from a number of measurements.
For CNc1nc(Nc2ccc(Cl)cc2)ncc1[N+](=O)[O-] [1 (1), 2-(4-chlorophenylamino)-4-methylamino-5-nitro-pyrimidine], the IC50 was 800 nM. For CNc1nc(Nc2ccc(Cl)c(Cl)c2)ncc1N [2 (1), 2-(3,4-dichlorophenylamino)-4-methylamino-5-amino-pyrimidine], the IC50 was 1000 nM. With CNc1nc(Nc2ccc(Cl)c(Cl)c2)ncc1NS(C)(=O)=O [3 (3), 2-(3,4-dichlorophenylamino)-4-methylamino-5-methylsulphonylamino-pyrimidine] the IC50 was 60 nM. Work on CNc1nc(Nc2ccc(Cl)c(Cl)c2)ncc1NC(C)=O [3 (4), 2-(3,4-dichlorophenylamino)-4-methylamino-5-acetylamino-pyrimidine] yielded an IC50 of 60 nM. Work on CNc1nc(Nc2ccc(Cl)c(Cl)c2)ncc1N1CCNC1=O [3 (26), 2-(3,4-dichlorophenylamino)-4-methylamino-5-(imidazolidin-2-on-1-yl)-pyrimidine] yielded an IC50 of 600 nM. Work on CNc1nc(Nc2ccc(Cl)c(Cl)c2)ncc1NC(=O)N1CCOCC1 [3 (30), 2-(3,4-dichlorophenylamino)-4-methylamino-5-morpholinocarbonylamino-pyrimidine] yielded an IC50 of 200 nM. In the case of CNc1nc(Nc2ccc(Cl)c(Cl)c2)ncc1N1CCCNC1=O [3 (33), 2-(3,4-dichlorophenylamino)-4-methylamino-5-(tetrahydro-2(1H)-pyrimidinon-1-yl)-pyrimidine], the IC50 is reported as 300 nM. Work on CNc1nc(Nc2ccc(Cl)cc2F)ncc1NC(=O)N(C)C [3 (36), 2-(4-chloro-2-fluorophenylamino)-4-methylamino-5-(N,N-dimethylcarbamoyl-amino)-pyrimidine] yielded an IC50 of 250 nM. Work on CNc1nc(Nc2ccc(Cl)c(Cl)c2)ncc1NC(N)=O [3 (40), 2-(3,4-dichlorophenylamino)-4-methylamino-5-aminocarbonylamino-pyrimidine] yielded an IC50 of 350 nM. In the case of CN(C)c1nc(Nc2ccc(Cl)c(Cl)c2)ncc1NC(=O)N1CCOCC1 [3 (54), 2-(3,4-dichlorophenylamino)-4-dimethylamino-5-(morpholinocarbonylamino)-pyrimidine], the IC50 is reported as 900 nM. CCNc1nc(Nc2ccc(Cl)c(Cl)c2)ncc1NC(=O)N1CCOCC1 [3 (55), 2-(3,4-dichlorophenylamino)-4-ethylamino-5-(morpholinocarbonylamino)-pyrimidine] showed an IC50 of 900 nM. Work on CNc1nc(Nc2cccc(Cl)c2)ncc1NC(=O)N1CCOCC1 [3 (59), 2-(3-chlorophenylamino)-4-methylamino-5-(morpholinocarbonylamino)-pyrimidine] yielded an IC50 of 150 nM. With CNc1nc(Nc2ccc(Cl)c(Cl)c2)ncc1NC(=O)C(F)(F)F [3 (66), 2-(3,4-dichlorophenylamino)-4-methylamino-5-trifluoracetylamino-pyrimidine] the IC50 was 800 nM. In the case of CN(C)CCCNc1nc(Nc2ccc(Cl)c(Cl)c2)ncc1[N+](=O)[O-] [4 (9), 2-(3,4-dichlorophenylamino)-4-[3-(dimethylamino)propylamino]-5-nitro-pyrimidine], the IC50 is reported as 1000 nM. In the case of CNc1nc(N(C)c2ccc(Cl)c(Cl)c2)ncc1N1CCNC1=O [8 (2), 2-[N-(3,4-dichlorophenyl)-N-methylamino]-4-methylamino-5-(imidazolidin-2-on-1-yl)-pyrimidine], the IC50 is reported as 1000 nM. CNc1nc(Nc2ccc(Cl)c(Cl)c2)ncc1NC(=O)N1CCN(C)CC1 [11 (2), 2-(3,4-dichlorophenylamino)-4-methylamino-5-(4-methylpiperazinocarbonylamino)-pyrimidine] gave an IC50 of 100 nM. In the case of CNc1nc(Nc2ccc(Cl)c(Cl)c2)ncc1NC(=O)N(CCOC)CCOC [11 (3), 2-(3,4-dichlorophenylamino)-4-methylamino-5-[[bis-(2-methoxyethyl)amino]-carbonylamino]-pyrimidine], the IC50 is reported as 4 nM. CNc1nc(Nc2ccc(Cl)c(Cl)c2)ncc1NC(=O)N1CCCCCC1 [11 (4), 2-(3,4-dichlorophenylamino)-4-methylamino-5-(hexamethyleneiminocarbonylamino)-pyrimidine] gave an IC50 of 60 nM. Molecule CCN(CC)C(=O)Nc1cnc(Nc2ccc(Cl)c(Cl)c2)nc1NC [11 (5), 2-(3,4-dichlorophenylamino)-4-methylamino-5-(diethylaminocarbonylamino)-pyrimidine] has an IC50 of 100 nM. With CNc1nc(Nc2ccc(Cl)c(Cl)c2)ncc1NC(=O)N1CCNCC1 [11 (6), 2-(3,4-dichlorophenylamino)-4-methylamino-5-(piperazinocarbonylamino)-pyrimidine] the IC50 was 700 nM. Molecule CNc1nc(Nc2ccc(Cl)c(Cl)c2)ncc1NC(=O)N1CCN(C(C)=O)CC1 [11 (7), 2-(3,4-dichlorophenylamino)-4-methylamino-5-(4-acetylpiperazinocarbonylamino)-pyrimidine] has an IC50 of 1000 nM. In the case of CNc1nc(Nc2ccc(Cl)c(Cl)c2)ncc1NC(=O)N(C)CCO [11 (8), 2-(3,4-dichlorophenylamino)-4-methylamino-5-[[N-methyl-(2-hydroxyethyl)-amino]carbonylamino]-pyrimidine], the IC50 is reported as 200 nM. Work on CNc1nc(Nc2ccc(Cl)c(Cl)c2)ncc1NC(=O)N(C)CCN(C)C [11 (10), 2-(3,4-dichlorophenylamino)-4-methylamino-5-[[N-methyl-(2-dimethylamino-ethyl)amino]carbonylamino]-pyrimidine] yielded an IC50 of 800 nM. Molecule CNc1nc(Nc2ccc(Cl)c(Cl)c2)ncc1NC(=O)N(C)CCCN(C)C [11 (11), 2-(3,4-dichlorophenylamino)-4-methylamino-5-[[N-methyl-(3-dimethylaminopropyl)amino]carbonylamino]-pyrimidine] has an IC50 of 700 nM. In the case of CNc1nc(Nc2ccc(Cl)c(Cl)c2)ncc1NC(=S)N1CCOCC1 [11 (12), 2-(3,4-dichlorophenylamino)-4-methylamino-5-(morpholinothiocarbonylamino)-pyrimidine], the IC50 is reported as 1000 nM. Work on CNc1nc(Nc2ccc(Cl)c(Cl)c2)ncc1N(C)S(C)(=O)=O [Example 8, 2-(3,4-dichlorophenylamino)-4-methylamino-5-(N-methyl-methylsulphonylamino)-pyrimidine] yielded an IC50 of 1100 nM. Molecule CNc1nc(Nc2ccc(Cl)c(Cl)c2)ncc1NC(=O)N1CCCC1 [Example 11, 2-(3,4-dichlorophenylamino)-4-methylamino-5-(pyrrolidinocarbonylamino)-pyrimidine] has an IC50 of 100 nM.

Tested on: not given
Assay: not given
Settings: not given
CNc1nc(Nc2cccc(OCCN)c2)ncc1[N+](=O)[O-].Cl.Cl showed a melting point of 270 °C. For CNc1nc(Nc2ccc([S+](C)[O-])cc2)ncc1[N+](=O)[O-] (stereo not drawn) [Example 10 a), 2-(4-methylsulphinylphenylamino)-4-methylamino-5-nitropyrimidine], the melting point was 288 °C. In the case of CNc1nc(Nc2ccc(S(C)(=O)=O)cc2)ncc1[N+](=O)[O-] [Example 10 b), 2-(4-methylsulphonylphenylamino)-4-methylamino-5-nitropyrimidine], the melting point is reported as 323 °C.
